Data reported in US20260035411A1, “CRYSTALLINE FORMS OF A PCSK9 INHIBITOR, COMPOSITIONS AND USES” (MERCK SHARP & DOHME LLC, priority 2022, published 2026).
Entries after “also recorded” stand apart in the source; their conditions may differ. Like-named read-outs stand apart in the source and are kept apart here.

Assays:
[1] = XRPD analysis before and after adsorption/desorption cycles (physical stability, crystallinity); type: physicochemical
Method: X-ray powder diffraction studies are widely used to characterize molecular structures, crystallinity, and polymorphism. The X-ray powder diffraction patterns disclosed herein were generated on a Philips Analytical X′Pert PRO X-ray Diffraction System with PW3040/60 console. A PW3373/00 ceramic Cu LEF X-ray tube K-Alpha radiation was used as the source.
In addition, the chloride salt requires −20° C. storage to minimize chemical degradation while the acetate and caprate salts are less prone to degradation at higher temperatures. […] The stability of crystalline forms of the compounds of Formula I were characterized by XRPD under relative humidity conditions that simulate potential storage conditions.

[2] = Adsorption/desorption cycles under relative humidity (weight increase, hygroscopicity)

COc1ccc(C[C@@H]2NC(=O)[C@H]([C@@H](C)O)NC(=O)[C@@H]3[C@@H]4CCN3C(=O)[C@@H]3Cc5cn(c6ccc(F)cc56)CCCCCCN(Cc5ccc(cc5)CCNC(=O)[C@]5(C)CCCN5C2=O)C(=O)CCC(=O)N[C@@H](C)C(=O)N[C@H](CNC(=O)CCCCC[N+](C)(C)C)C(=O)N[C@@H](Cc2cccc(c2)CNC(=O)CO4)C(=O)N3)cc1 [Acetate 4]
crystallinity by XRPD after adsorption/desorption ([1]; 5-95-5% RH adsorption/desorption cycle (FIG. 31B, 33B)): loses crystallinity
crystallinity by XRPD after adsorption/desorption ([1]; two adsorption/desorption cycles of 5-55% RH (FIG. 30B)): retains minimal crystallinity; also recorded: decrease in crystallinity
hysteresis during the desorption step ([2]; 5-95% RH cycle (FIG. 31A)): Hysteresis is observed
increase in weight ([2]; at 55% RH (FIG. 30A)): ~9%
increase in weight ([2]; at 95% RH (FIG. 31A, 33A)): ~40%

COc1ccc(C[C@@H]2NC(=O)[C@H]([C@@H](C)O)NC(=O)[C@@H]3[C@@H]4CCN3C(=O)[C@@H]3Cc5cn(c6ccc(F)cc56)CCCCCCN(Cc5ccc(cc5)CCNC(=O)[C@]5(C)CCCN5C2=O)C(=O)CCC(=O)N[C@@H](C)C(=O)N[C@H](CNC(=O)CCCCC[N+](C)(C)C)C(=O)N[C@@H](Cc2cccc(c2)CNC(=O)CO4)C(=O)N3)cc1 [Caprate 3]
crystallinity by XRPD after adsorption/desorption [1]: maintains its crystallinity; also recorded: retains crystallinity
increase in weight [2]: ~4.9%
relative humidity by which H2O is readily absorbed [2]: 25-35 % RH
relative humidity until which H2O is not lost [2]: 15 % RH

COc1ccc(C[C@@H]2NC(=O)[C@H]([C@@H](C)O)NC(=O)[C@@H]3[C@@H]4CCN3C(=O)[C@@H]3Cc5cn(c6ccc(F)cc56)CCCCCCN(Cc5ccc(cc5)CCNC(=O)[C@]5(C)CCCN5C2=O)C(=O)CCC(=O)N[C@@H](C)C(=O)N[C@H](CNC(=O)CCCCC[N+](C)(C)C)C(=O)N[C@@H](Cc2cccc(c2)CNC(=O)CO4)C(=O)N3)cc1 [Caprate 5]
crystallinity by XRPD after adsorption/desorption [1]: retains some crystallinity; also recorded: loses crystallinity; also recorded: decrease in crystallinity
hysteresis during the desorption steps [2]: Slight hysteresis is observed

COc1ccc(C[C@@H]2NC(=O)[C@H]([C@@H](C)O)NC(=O)[C@@H]3[C@@H]4CCN3C(=O)[C@@H]3Cc5cn(c6ccc(F)cc56)CCCCCCN(Cc5ccc(cc5)CCNC(=O)[C@]5(C)CCCN5C2=O)C(=O)CCC(=O)N[C@@H](C)C(=O)N[C@H](CNC(=O)CCCCC[N+](C)(C)C)C(=O)N[C@@H](Cc2cccc(c2)CNC(=O)CO4)C(=O)N3)cc1 [water-free Caprate 3]
crystallinity by XRPD after adsorption/desorption [1]: retains crystallinity
increase in weight [2]: ~9.4%
